Structures can show the parent of a compound that is named as a salt.
Assays:
[1] = target: BIR3 domain of XIAP (Homo sapiens (Human), UniProt P98170); assay: TR-FRET assay for BIR3 (inhibition of binding of XIAP BIR3 domain to SMAC-derived Peptide A); conditions: 6x His-tagged BIR3 domain (aa 241-356 of XIAP) 10 nM, Peptide A 20 nM, TR-FRET
[2] = target: BIR2 domain of XIAP (Homo sapiens (Human), UniProt P98170, C202A/C213G); assay: TR-FRET assay for BIR2 (inhibition of binding of XIAP BIR2 domain to SMAC-derived Peptide A); conditions: 6x His-tagged BIR2 domain (aa 124-240 of XIAP) 10 nM, Peptide A 20 nM, TR-FRET; read-out: IC50 BIR2
BIR2 domain of XIAP, sequence (P98170 124-240 with tags or gaps C202A/C213G limits assumed): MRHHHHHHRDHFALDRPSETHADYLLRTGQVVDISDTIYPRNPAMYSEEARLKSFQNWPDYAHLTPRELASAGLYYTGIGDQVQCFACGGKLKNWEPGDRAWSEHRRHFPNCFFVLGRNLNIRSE

BIR3 domain of XIAP, sequence (P98170 241-356 with tags or gaps limits assumed): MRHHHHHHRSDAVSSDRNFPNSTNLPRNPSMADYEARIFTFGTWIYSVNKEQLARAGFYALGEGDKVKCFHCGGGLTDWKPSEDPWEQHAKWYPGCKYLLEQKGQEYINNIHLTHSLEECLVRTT

SMILES | IC50 [1] | IC50 [2]
CN[C@@H](C)C(=O)N[C@H]1CNc2cc(C#N)ccc2N(Cc2nn(-c3ccccc3C#N)c3ccccc23)C1=O [Example 168, (S)-N-((S)-7-cyano-1-((1-(2-cyanophenyl)-1H-indazol-3-yl)methyl)-2-oxo-2,3,4,5-tetrahydro-1H-benzo[b][1,4]diazepin-3-yl)-2-(methylamino)propanamide dihydrochloride] | > 54800 nM | 95.7 nM
CN[C@@H](C)C(=O)N[C@H]1CN(C(=O)CS(C)(=O)=O)c2ccc(C#N)cc2N(Cc2c(OC)ccc3ccccc23)C1=O [Example 171, (S)-N-((S)-8-cyano-1-((2-methoxynaphthalen-1-yl)methyl)-5-(2-(methylsulfonyl)acetyl)-2-oxo-2,3,4,5-tetrahydro-1H-benzo[b][1,4]diazepin-3-yl)-2-(methylamino)propanamide hydrochloride] | 41200 nM | 30.3 nM
CN[C@@H](C)C(=O)N[C@H]1CN(C(=O)c2ccncc2)c2cc(C#N)ccc2N(Cc2nn(-c3ccccc3C#N)c3ccccc23)C1=O [Example 174, (S)-N-((S)-7-cyano-1-((1-(2-cyanophenyl)-1H-indazol-3-yl)methyl)-5-isonicotinoyl-2-oxo-2,3,4,5-tetrahydro-1H-benzo[b][1,4]diazepin-3-yl)-2-(methylamino)propanamide dihydrochloride] | > 54800 nM | 22.4 nM
CN[C@@H](C)C(=O)N[C@H]1CN(C(C)=O)c2cc(C(F)(F)F)ccc2N(Cc2nn(-c3ccccc3C#N)c3ccccc23)C1=O [Example 177, (S)-N-((S)-5-acetyl-1-((1-(2-cyanophenyl)-1H-indazol-3-yl)methyl)-2-oxo-7-(trifluoromethyl)-2,3,4,5-tetrahydro-1H-benzo[b][1,4]diazepin-3-yl)-2-(methylamino)propanamide hydrochloride] | > 54800 nM | 35.3 nM
CN[C@@H](C)C(=O)N[C@H]1CN(C(=O)C2CCOCC2)c2cc(C#N)ccc2N(Cc2c(C3CC3)cnc3ccccc23)C1=O [Example 180, (S)-N-((S)-7-cyano-1-((3-cyclopropylquinolin-4-yl)methyl)-2-oxo-5-(telrahydro-2H-pyran-4-carbonyl)-2,3,4,5-tetrahydro-1H-benzo[b][1,4]diazepin-3-yl)-2-(methylamino)propanamide] | 16500 nM | 18 nM
CN[C@@H](C)C(=O)N[C@H]1CN(C(C)=O)c2cc(C#N)ccc2N(Cc2c(OC)ccc3c(C#N)cccc23)C1=O [Example 182, (S)-N-((S)-5-acetyl-7-cyano-1-((5-cyano-2-methoxynaphthalen-1-yl)methyl)-2-oxo-2,3,4,5-tetrahydro-1H-benzo[b][1,4]diazepin-3-yl)-2-(methylamino)propanamide] | 32400 nM | 23.5 nM
CN[C@@H](C)C(=O)N[C@H]1CN(C(=O)CS(C)(=O)=O)c2cc(C(F)(F)F)ccc2N(Cc2c(C3CC3)cnc3ccccc23)C1=O [Example 187, (S)-N-((S)-1-((3-cyclopropylquinolin-4-yl)methyl)-5-(2-(methylsulfonyl)acetyl)-2-oxo-7-(trifluoromethyl)-2,3,4,5-tetrahydro-1H-benzo[b][1,4]diazepin-3-yl)-2-(methylamino)propanamide] | 34400 nM | 49.3 nM
CN[C@@H](C)C(=O)N[C@H]1CN(C(=O)CCS(C)(=O)=O)c2cc(C(F)(F)F)ccc2N(Cc2c(C3CC3)cnc3ccccc23)C1=O [Example 188, (S)-N-((S)-1-((3-cyclopropylquinolin-4-yl)methyl)-5-(3-(methylsulfonyl)propanoyl)-2-oxo-7-(trifluoromethyl)-2,3,4,5-tetrahydro-1H-benzo[b][1,4]diazepin-3-yl)-2-(methylamino)propanamide] | 25400 nM | 22.5 nM
CN[C@@H](C)C(=O)N[C@H]1CN(C(C)=O)c2cc(C(F)(F)F)ccc2N(Cc2c(C3CC3)ccc3c(C#N)cccc23)C1=O [Example 189, (S)-N-((S)-5-acetyl-1-((5-cyano-2-cyclopropylnaphthalen-1-yl)methyl)-2-oxo-7-(trifluoromethyl)-2,3,4,5-tetrahydro-1H-benzo[b][1,4]diazepin-3-yl)-2-(methylamino)propanamide] | 29300 nM | 30.4 nM
CN[C@@H](C)C(=O)N[C@@H]1C(=O)N(CC(=O)Nc2ccccc2)c2ccccc2N(C(C)=O)[C@H]1C [Example 191, (S)-N-((2S,3S)-1-acetyl-2-methyl-4-oxo-5-(2-oxo-2-(phenylamino)ethyl)-2,3,4,5-tetrahydro-1H-benzo[b][1,4]diazepin-3-yl)-2-(methylamino)propanamide hydrochloride] | > 54800 nM | 434 nM

Other lines, results leading:

IC50 [1] | IC50 [2] | SMILES
43600 nM | 20 nM | CN[C@@H](C)C(=O)N[C@H]1CN(C(=O)CS(C)(=O)=O)c2cc(C#N)ccc2N(Cc2c(OC)ccc3ccccc23)C1=O [Example 166, (S)-N-((S)-7-cyano-1-((2-methoxynaphthalen-1-yl)methyl)-5-(2-(methylsulfonyl)acetyl)-2-oxo-2,3,4,5-tetrahydro-1H-benzo[b][1,4]diazepin-3-yl)-2-(methylamino)propanamide hydrochloride]
> 54800 nM | 33.2 nM | CN[C@@H](C)C(=O)N[C@H]1CN(C(C)=O)c2cc(C#N)ccc2N(Cc2nn(-c3ccccc3C#N)c3ccccc23)C1=O [Example 169, (S)-N-((S)-5-acetyl-7-cyano-1-((1-(2-cyanophenyl)-1H-indazol-3-yl)methyl)-2-oxo-2,3,4,5-tetrahydro-1H-benzo[b][1,4]diazepin-3-yl)-2-(methylamino)propanamide hydrochloride]
> 54800 nM | 25.5 nM | CN[C@@H](C)C(=O)N[C@H]1CN(C(=O)C2CCOCC2)c2cc(C#N)ccc2N(Cc2nn(-c3ccccc3C#N)c3ccccc23)C1=O [Example 170, (S)-N-((S)-7-cyano-1-((1-(2-cyanophenyl)-1H-indazol-3-yl)methyl)-2-oxo-5-(tetrahydro-2H-pyran-4-carbonyl)-2,3,4,5-tetrahydro-1H-benzo[b][1,4]diazepin-3-yl)-2-(methylamino)propanamide hydrochloride]
> 54800 nM | 94.7 nM | CN[C@@H](C)C(=O)N[C@H]1CN(C(=O)CS(C)(=O)=O)c2ccc(C#N)cc2N(Cc2c(C)ccc3ccccc23)C1=O [Example 172, (S)-N-((S)-8-cyano-1-((2-methylnaphthalen-1-yl)methyl)-5-(2-(methylsulfonyl)acetyl)-2-oxo-2,3,4,5-tetrahydro-1H-benzo[b][1,4]diazepin-3-yl)-2-(methylamino)propanamide hydrochloride]
> 54800 nM | 37.6 nM | CN[C@@H](C)C(=O)N[C@H]1CN(C(=O)CCOC)c2cc(C#N)ccc2N(Cc2nn(-c3ccccc3C#N)c3ccccc23)C1=O [Example 173, (S)-N-((S)-7-cyano-1-((1-(2-cyanophenyl)-1H-indazol-3-yl)methyl)-5-(3-methoxypropanoyl)-2-oxo-2,3,4,5-tetrahydro-1H-benzo[b][1,4]diazepin-3-yl)-2-(methylamino)propanamide hydrochloride]
25600 nM | 38.2 nM | CN[C@@H](C)C(=O)N[C@H]1CN(C(C)=O)c2cc(C#N)ccc2N(Cc2c(C3CC3)ccc3c(C#N)cccc23)C1=O [Example 176, (S)-N-((S)-5-acetyl-7-cyano-1-((5-cyano-2-cyclopropylnaphthalen-1-yl)methyl)-2-oxo-2,3,4,5-tetrahydro-1H-benzo[b][1,4]diazepin-3-yl)-2-(methylamino)propanamide hydrochloride]
16100 nM | 14.2 nM | CN[C@@H](C)C(=O)N[C@H]1CN(C(=O)c2ccc(N)cc2)c2ccccc2N(Cc2c(OCCF)ccc3ccccc23)C1=O [Example 178, (2S)-N-[(3S)-1-(4-aminobenzoyl)-5-[[2-(2-fluoroethoxy)naphthalen-1-yl]methyl]-4-oxo-2,3-dihydro-1,5-benzodiazepin-3-yl]-2-(methylamino)propanamide;hydrochloride]
15200 nM | 18.3 nM | CN[C@@H](C)C(=O)N[C@H]1CN(C(=O)C2CCOCC2)c2cc(C(F)(F)F)ccc2N(Cc2c(C3CC3)cnc3ccccc23)C1=O [Example 184, (S)-N-((S)-1-((3-cyclopropylquinolin-4-yl)methyl)-2-oxo-5-(tetrahydro-2H-pyran-4-carbonyl)-7-(trifluoromethyr)-2,3,4,5-tetrahydro-1H-benzo[b][1,4]diazepin-3-yl)-2-(methylamino)propanamide]
> 54800 nM | 85.3 nM | CN[C@@H](C)C(=O)N[C@@H]1C(=O)N(CC(=O)Nc2c(F)cccc2F)c2ccccc2N(C(C)=O)[C@H]1C [Example 190, (S)-N-((2S,3S)-1-acetyl-5-(2-(2,6-difluorophenylamino)-2-oxoethyl)-2-methyl-4-oxo-2,3,4,5-tetrahydro-1H-benzo[b][1,4]diazepin-3-yl)-2-(methylamino)propanamide hydrochloride]
